The term Emax denotes the size of the effect at its maximum, as opposed to the concentration needed.

Here are results for 8 compounds from US6784181B2, “Piperazine-containing compounds useful in the treatment of pain” (AstraZeneca AB, priority 1999, dated 2004).

Counter-ions that a name gives are not always drawn. Like-named read-outs stand apart in the source and are kept apart here.

For one data set, the target named is RAT BRAIN (Rattus norvegicus, UniProt P33533). Description: Functional agonism rat brain (EC50, % EMAX). In kind it is biochemical.
Another data set concerns the target T1, HDELTA (Homo sapiens, UniProt P41143).
T1 construct: expressed in transfected cells
Description: Functional agonism HDELTA (EC50, % EMAX). In kind it is biochemical.

For a further data set, the target named is MOUSE BRAIN (Mus musculus, UniProt P32300). Description: Functional agonism mouse brain (EC50, % EMAX). Type of data set: biochemical.
Data set [1] has as its target T2, cloned human δ receptors (HDELTA) (Homo sapiens, UniProt P41143).
T2 construct: expressed in transfected cells; host or cells: human 293S cells (geneticin-selected), membranes
In words: Binding assay, membranes of 293S cells expressing cloned human δ receptor.

Data set [2] can be described thus: Metabolic stability MLM (% remaining). In kind it is in vitro ADME, mouse.
Data set [3] in a line: Metabolic stability RLM (% remaining). In kind it is in vitro ADME, rat.
The mark [4] stands for this setting: displacement of radioligand, human δ receptor membranes, read-out: HDELTA.

T2 sequence (P41143 whole entry): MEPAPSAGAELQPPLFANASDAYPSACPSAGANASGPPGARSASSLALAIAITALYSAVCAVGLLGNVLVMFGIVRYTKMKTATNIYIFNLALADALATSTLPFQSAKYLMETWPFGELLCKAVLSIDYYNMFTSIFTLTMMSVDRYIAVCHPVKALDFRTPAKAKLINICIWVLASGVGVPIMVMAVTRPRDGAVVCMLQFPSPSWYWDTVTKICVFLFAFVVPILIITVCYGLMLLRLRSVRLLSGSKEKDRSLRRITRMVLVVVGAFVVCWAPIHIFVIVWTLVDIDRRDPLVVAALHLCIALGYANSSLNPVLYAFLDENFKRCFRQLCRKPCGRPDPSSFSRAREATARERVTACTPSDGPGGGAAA
T1 sequence (P41143 whole entry): as above
Chain of MOUSE BRAIN (P32300 whole entry): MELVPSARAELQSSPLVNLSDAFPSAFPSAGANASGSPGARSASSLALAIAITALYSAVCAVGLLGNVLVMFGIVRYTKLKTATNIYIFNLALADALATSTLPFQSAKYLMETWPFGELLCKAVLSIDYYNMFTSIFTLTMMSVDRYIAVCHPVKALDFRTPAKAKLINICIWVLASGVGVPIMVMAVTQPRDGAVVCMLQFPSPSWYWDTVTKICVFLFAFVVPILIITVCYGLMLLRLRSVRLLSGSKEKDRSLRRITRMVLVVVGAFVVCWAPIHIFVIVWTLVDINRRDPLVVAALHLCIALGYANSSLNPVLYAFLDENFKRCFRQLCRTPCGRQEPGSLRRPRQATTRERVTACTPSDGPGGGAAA
Chain of RAT BRAIN (P33533 whole entry): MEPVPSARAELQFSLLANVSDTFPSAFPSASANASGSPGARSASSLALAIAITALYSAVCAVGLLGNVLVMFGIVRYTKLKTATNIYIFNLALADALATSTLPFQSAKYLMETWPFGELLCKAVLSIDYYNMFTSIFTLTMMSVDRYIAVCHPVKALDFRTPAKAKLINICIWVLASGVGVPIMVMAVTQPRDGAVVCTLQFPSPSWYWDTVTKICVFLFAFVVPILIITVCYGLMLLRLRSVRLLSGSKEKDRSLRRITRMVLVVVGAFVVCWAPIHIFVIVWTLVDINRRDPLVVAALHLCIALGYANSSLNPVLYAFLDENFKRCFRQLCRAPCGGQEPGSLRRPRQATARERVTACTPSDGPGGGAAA

On RAT BRAIN, `CCN(CC)C(=O)c1ccc(C(c2cccc3cccnc23)N2CCN(Cc3ccccn3)CC2)cc1` (stereo not drawn) [Example 12, N,N-diethyl-4-[[4-(2-pyridinylmethyl)-1-piperazinyl](8-quinolinyl)methyl]benzamide Dihydrochloride] displayed an Emax of 106%. At HDELTA, the EC50 turned out to be 0.76 nM and the Emax is 97.7%. Besides, the Emax on MOUSE BRAIN is 91.3%. In addition, the IC50 in data set [1] is 0.692 nM. Moreover, in data set [2], the “MLM 10000 % rem.” value was 0 % rem and the “MLM 100000 % rem.” value turned out to be 53.5 % rem. In data set [3], the “RLM 10000 % rem.” value is on record as 21.5 % rem and the “RLM 100000 % rem.” value stood at 66 % rem.

As for `CCN(CC)C(=O)c1ccc(C(c2cccc3cccnc23)N2CCN(Cc3ccsc3)CC2)cc1` (stereo not drawn) [Example 13, N,N-diethyl-4-[[4-(3-thienylmethyl)-1-piperazinyl](8-quinolinyl)methyl]benzamide], the Emax on RAT BRAIN came out at 112%. At HDELTA, the EC50 was 1.44 nM and the Emax amounted to 101%. Besides, at MOUSE BRAIN, the Emax was 113%. Besides, in data set [1], the IC50 worked out at 1.03 nM. Moreover, in data set [2], the “MLM 10000 % rem.” value amounted to 1.667 % rem and the “MLM 100000 % rem.” value is 71.667 % rem. Moreover, in data set [3], the “RLM 10000 % rem.” value worked out at 10 % rem and the “RLM 100000 % rem.” value is on record as 62.667 % rem.

At RAT BRAIN, `CCN(CC)C(=O)c1ccc(C(c2cccc3cccnc23)N2CCN(Cc3ccco3)CC2)cc1` (stereo not drawn) [Example 14, N,N-diethyl-4-[[4-(2-furanylmethyl)-1-piperazinyl](8-quinolinyl)methyl]benzamide] came in with an Emax of 102%. At HDELTA, this compound came in with an EC50 of 0.76 nM and a maximal effect (Emax) of 88.7%. Besides, the Emax on MOUSE BRAIN came to 106%. Further, the IC50 in data set [1] is 0.181 nM. Also, in data set [2], the “MLM 10000 % rem.” value stood at 0 % rem and the “MLM 100000 % rem.” value came out at 49 % rem. Further, in data set [3], the “RLM 10000 % rem.” value came to 13.5 % rem and the “RLM 100000 % rem.” value is listed as 84.5 % rem.

Turning to `CCN(CC)C(=O)c1ccc(C(c2cccc3cccnc23)N2CCN(Cc3ccoc3)CC2)cc1` (stereo not drawn) [Example 15, N,N-diethyl-4-[[4-(3-furanylmethyl)-1-piperazinyl](8-quinolinyl)methyl]benzamide], the Emax at RAT BRAIN came to 109%. On HDELTA, this compound had an EC50 of 0.79 nM and an Emax of 89%. The same compound came in with an Emax on MOUSE BRAIN of 110%. Besides, in data set [1], the IC50 was found to be 0.787 nM. Moreover, in data set [2], the “MLM 10000 % rem.” value is recorded as 0 % rem and the “MLM 100000 % rem.” value is reported as 68 % rem. In data set [3], the “RLM 10000 % rem.” value is 10 % rem and the “RLM 100000 % rem.” value came to 86 % rem.

As to `CCN(CC)C(=O)c1ccc(C(c2cccc3cccnc23)N2CCN(Cc3cccs3)CC2)cc1.Cl.Cl` (stereo not drawn) [Example 16, N,N-diethyl-4-[[4-(2-thiophenylmethyl)-1-piperazinyl](8-quinolinyl)methyl]benzamide Dihydrochloride], the Emax on RAT BRAIN is 100%. Besides, at HDELTA, the EC50 is 2.39 nM and the Emax turned out to be 99.4%. Also, the Emax on MOUSE BRAIN came out at 98.4%. Besides, the IC50 in data set [1] turned out to be 1.51 nM. Further, in data set [2], the “MLM 10000 % rem.” value is 0.5 % rem and the “MLM 100000 % rem.” value amounted to 46.5 % rem. In data set [3], the “RLM 10000 % rem.” value amounted to 9.5 % rem and the “RLM 100000 % rem.” value is given as 64.5 % rem.

Regarding `CCN(CC)C(=O)c1ccc(C(c2cccc3cccnc23)N2CCN(Cc3ncc[nH]3)CC2)cc1.Cl.Cl` (stereo not drawn) [Example 17, N,N-diethyl-4-[[4-(2-imidazolylmethyl)-1-piperazinyl](8-quinolinyl)methyl]benzamide Dihydrochloride], the Emax on RAT BRAIN was 106%. On HDELTA, this compound showed an EC50 of 3.03 nM and an Emax of 95.7%. Moreover, the Emax on MOUSE BRAIN stood at 92.5%. In data set [1], the IC50 worked out at 1.09 nM. For the same compound, in data set [2], the “MLM 10000 % rem.” value was found to be 0 % rem and the “MLM 100000 % rem.” value was 21.5 % rem. Besides, in data set [3], the “RLM 10000 % rem.” value was found to be 5.5 % rem and the “RLM 100000 % rem.” value stood at 75 % rem.

`CCN(CC)C(=O)c1ccc(C(c2cccc3cccnc23)N2CCN(Cc3c[nH]cn3)CC2)cc1` (stereo not drawn) [Example 18, N,N-diethyl-4-[[4-(4-imidazolylmethyl)-1-piperazinyl](8-quinolinyl)methyl]benzamide Dihydrochloride]: the Emax at RAT BRAIN amounted to 111%; on HDELTA it was 93.8%; on MOUSE BRAIN, 108%. Besides, the EC50 at HDELTA (read-out: HDELTA EC50) was found to be 5.85 nM. Further, the IC50 in data set [1] (setting [4]) came out at 1.54 nM.

Consider `CCN(CC)C(=O)c1ccc(C(c2cccc3cccnc23)N2CCN(Cc3nc[nH]n3)CC2)cc1.Cl.Cl` (stereo not drawn) [Example 19, N,N-diethyl-4-[[4-(3-triazolylmethyl)-1-piperazinyl](8-quinolinyl)methyl]benzamide Dihydrochloride], for which, at RAT BRAIN, the EC50 is 2810 nM and the “RAT BRAIN % EMAX” value was 56.35%. Also, the “HDELTA % EMAX” value at HDELTA was 97.88%. The EC50 at HDELTA (read-out: HDELTA EC50) came to 85.2 nM. Further, at MOUSE BRAIN, the EC50 came out at 1370 nM and the “MOUSE BRAIN % EMAX” value is listed as 48.68%. For the same compound, the IC50 in data set [1] (setting [4]) came to 18.8 nM.
